Source: patent US9180163B2, “Parstatin peptides” (priority 2009, dated 2015)
Where two headings read alike, the source gives them in different places.

Tests used:
[1] = system: HUVEC cells; assay: Matrigel capillary tube-like formation; type: cell-based, human; details: 5% FBS, 18 h; parstatin (1-41) 0.3 to 10 μM, other peptides 10 μM
Procedure: Primary human umbilical vein endothelial cells (HUVEC cells) were obtained from freshly delivered umbilical cords from caesarean births and were grown in M199 medium with 20% fetal bovine serum (FBS) supplemented with endothelial cell growth supplement and heparin. One of the most specific tests for angiogenesis is the measurement of the ability of endothelial cells to form capillary-like structures (i.e., tube formation). Tube formation is a multi-step process involving cell adhesion, migration and differentiation. Tube formation can be enhanced by use of Matrigel or fibrin clots to coat plastic culture dishes and it is an accepted model of angiogenesis.
Matrigel™ (Becton Dickinson Labware, N.J., USA) is a mixture of basement membrane components extracted from the Englebreth-Holm-Swarm tumor. […] Matrigel™ (250 μl) was added to each well of a 24-well plate and allowed to polymerize. A suspension of 40,000 HUVEC cells in M199 medium containing 5% FBS was added into each well coated with Matrigel™.
Cells were treated with increasing concentrations of human parstatin (1-41), scrambled parstatin, or parstatin (24-41) fragment. After 18 hours of incubation, the medium was removed, and the cells were fixed and stained, and tube-like structures were quantitated.

[2] = system: retinal neovascularization in C57BL/6 mice; type: in vivo; details: 5 μg intravitreal P12 and P15; P17; vs vehicle (PBS or DMSO)
Description: Parstatin (1-41), hydrophobic parstatin (1-26) fragment and hydrophilic parstatin (24-41) fragment were used in an in vivo mouse model of retinal neovascularization. In particular, oxygen-induced retinopathy was used to generate retinal neovascularization as a preclinical disease model for retinopathy of prematurity and other retinal neovascular diseases such as diabetic retinopathy. In this model, exposing newborn mice to hyperoxia prompts regression or delay of retinal vascular development, followed by abnormal angiogenesis after their return to normal oxygen levels. Mainly, this model mirrors the events that occur during retinopathy of prematurity, when infants are removed from oxygen-rich incubators, a condition involving pathological neovascularization that can affect premature infants and result in permanent visual loss. In recent years, the use of this model has been extended to the general study of ischemic vasculopathies, such us diabetic retinopathy, and related antiangiogenic interventions, and it is now used extensively in both basic and applied research environments.
Pathogen-free C57BL/6 mice were treated in accordance with the Association for Research in Vision and Ophthalmology Statement for the Use of Animals in Ophthalmic and Vision Research and the guidelines of the Animal Care and Use Committee at local University Medical School. Litters of 7-day old (P7) mice were exposed to an atmosphere of 75% oxygen in an airtight incubator for 5 days (P12), after which they were returned to room air for 5 days (P17). For quantification of oxygen-induced retinal neovascularization, mice on P17 were given an intraocular injection of 1 μl of rat anti-mouse platelet endothelial cell adhesion molecule-1 (PECAM-1) antibody (Pharmingen, San Jose, Calif.) under a dissecting microscope with Harvard pump microinjection apparatus. Mice were euthanized 12 hours after injection and eyes were fixed in PBS-buffered formalin for 5 hours. […] Retinal flat mounts were prepared and assessed with fluorescence microscope using imaging software. […]

[3] = system: corneal neovascularization in Sprague-Dawley rats; assay: chemical burn-induced corneal neovascularization, image analysis; type: in vivo, rat; details: 2×50 μg subconjunctival, day 7
Description: Parstatin (1-41), hydrophobic parstatin (1-26) fragment and hydrophilic parstatin (24-41) fragment were used in an in vivo rat model of corneal neovascularization. In particular, chemical burn-induced corneal trauma was used to generate corneal neovascularization as a preclinical disease model simulating a plethora of corneal diseases associated with abnormal formation of new blood vessels. The cornea is normally an avascular tissue that can be stimulated to undergo pathological neoangiogenesis in response to mechanical or chemical injuries, pterygium, herpetic keratitis, etc. In this model, an inflammatory response is considered an important prerequisite for neovascularization. This model is widely accepted and is one of the most extensively studied models, which provides an in vivo environment to study this complex process with convenient access to the corneal tissue and the highly visible developing vasculature.
Pathogen-free male Sprague-Dawley rats (250-300 gr) were treated in accordance with the Association for Research in Vision and Ophthalmology Statement for the Use of Animals in Ophthalmic and Vision Research and the guidelines of the Animal Care and Use Committee at local University Medical School. […] The corneal neovascularization was assessed using a semiautomatic program, which was developed in MATLAB 7.5. […]

[4] = system: renal ischemia-reperfusion injury in Wistar rats
Procedure: Pathogen-free male Wistar rats weighting 250-300 g were used and treated in compliance with the “Guide for the Care and Use of Laboratory Animals” published by the US National Institutes of Health (NIH Publication NO. 85-23, revised 1996).
Rats were anesthetized with intramuscular injection of ketamine (25 mg/Kg) and xylazine hydrochloride (10 mg/Kg). After a midline laparotomy, the renal pedicles were identified and bilaterally occluded for a period of 45 min using nontraumatic microaneurysm clamps. The presence of ischemia was visually confirmed by observing blanching of the kidneys. Sham-operated rats were subjected to identical surgical procedures without causing renal ischemia by application of microaneurysm clamps. At the end of ischemia period the clamps were removed and renal reperfusion was established. All rats were killed 4 hours after the initiation of reperfusion.
Urine was collected during reperfusion, and at the end of the experiments blood samples were taken and analyzed for biochemical markers of renal impairment. Serum creatinine levels were measured as an indicator of glomerular function. Urine concentrations of Na^+ were determined and used in conjunction with serum Na^+ concentrations to estimate FENa which was used as a sensitive indicator of tubular function.
For histological assessment of renal ischemia-reperfusion injury, the rat kidneys were removed 4 hours after reperfusion, fixed in 10% formalin, embedded in paraffin, sectioned (5-μm thicknesses), and stained with haematoxylin and eosin. Tubular injury was identified by the presence of any of flattened tubular cells, loss of brush border, and cast formation. Ten high-powered fields (hpf's; ×400 magnification) from the outer medulla and corticomedullary junction were examined from each animal to determine the percentage of tubules showing evidence of injury and scored according to the following scale: 0, no injury; 1, less than 10%; 2, 10% to 25%; 3, 26% to 75%; 4, greater than 75%. The 10 scores were averaged to give the tubular injury score for each specimen.

[5] = parstatin (1-26) IV 10 seconds after initiation of reperfusion

Sequence | tube formation on Matrigel [1] | inhibition of retinal neovascularization [2] [%] | inhibition of corneal neovascularization [3] [%] | histological scoring of renal injury ([4]; 10 μg/Kg) | reduction of FENa ([4]; 10 μg/Kg IV pre-ischemic) [%] | reduction of serum creatinine ([4]; 10 μg/Kg IV pre-ischemic) [%] | reduction of FENa [4, 5] [%] | reduction of serum creatinine [4, 5] [%]
TRARRPESKATNATLDPR (listed as Homo sapiens) [parstatin (24-41), 24-41 (18 amino acids) of human parstatin, hydrophilic fragment] | did not affect | 69 | 60 |  |  |  |  | 
MGPRRLLLVAACFSLCGPLLSARTRA (listed as Homo sapiens) [parstatin (1-26)] |  | 65 | 50 | significantly reduced | 66 | 27 | 72 | 30
